Among the data in patent US20170334899A1, “AMINO-SUBSTITUTED ISOTHIAZOLES” (Bayer Pharma Aktiengesellschaft, priority 2014, published 2017) are IC50 values, retold here.

pIC50: −log10 of the molar value.

Type in all cases: cell-based
The subject of experiment [1] is human cervical tumor cell line HeLa (ATCC CCL-2). The experiment in a line: SAC-Formation - Nocodazole-Induced Assay. Conditions: Homo sapiens, HeLa, 24 h, HeLa cells, nocodazole 0.1 μg/ml together with test compound, decrease of mitotic cells (phospho-histone H3 Ser10). The source says: (§1) The spindle assembly checkpoint assures the proper segregation of chromosomes during mitosis. Upon entry into mitosis, chromosomes begin to condensate which is accompanied by the phosphorylation of histone H3 on serine 10. Dephosphorylation of histone H3 on serine 10 begins in anaphase and ends at early telophase. Accordingly, phosphorylation of histone H3 on serine 10 can be utilized as a marker of cells in mitosis. Nocodazole is a microtubule destabilizing substance. Paclitaxel is a microtubule stabilizing compound. Thus, nocodazole as well as paclitaxel interfere with microtubule dynamics and mobilize the spindle assembly checkpoint. […] The mitotic breakthrough can be detected by the decrease of cells with phosphorylation of histone H3 on serine 10. This decline is used as a marker to determine the capability of compounds of the present invention to induce a mitotic breakthrough. The typical morphological alteration of nuclei with a prematurely completed mitosis after SAC-inhibition can be monitored via image analysis routines supporting those findings.
(§2) The nocodazole and paclitaxel variations were used to focus on compounds that are capable of inhibiting a SAC induced by both microtubule destabilization as well as microtubule stabilization. When SAC inducing agents and compounds are given simultaneously inhibitors that effectively block the SAC during formation or abrogation are identified. When cells are incubated with a SAC inducing agent and the SAC interfering compound is given after a defined time, inhibitors are identified that effectively block SAC abrogation.
(§3) Cultivated cells of the human cervical tumor cell line HeLa (ATCC CCL-2) were plated at a density of 1000 cells/well in a 1536-well microtiter plate in 2 μl PAA Ham's F12 Medium supplemented with 1% (v/v) glutamine, 1% (v/v) penicillin, 1% (v/v) streptomycin and 10% (v/v) fetal calf serum. After incubation overnight at 37° C., 10 μl/well nocodazole at a final concentration of 0.1 μg/ml were added to cells. Test compounds solubilized in dimethyl sulfoxide (DMSO) were added at various concentrations (0 μM, as well as in the range of 0.005 μM-20 μM; the final concentration of the solvent DMSO was 0.5% (v/v)). Cells were incubated for 24 h at 37° C. in the presence of test compounds in combination with nocodazole. Thereafter, cells were fixed in 4% (v/v) paraformaldehyde in phosphate buffered saline (PBS) at 4° C. overnight then permeabilized in 0.1% (v/v) Triton X™ 100 in PBS at room temperature for 20 min and blocked in 0.5% (v/v) bovine serum albumin (BSA) in PBS at room temperature for 15 min. After washing with PBS, 5 μl/well antibody solution (anti-phospho-histone H3 clone 3H10, FITC; Millipore, Cat#16-222; 1:1000 dilution) was added to cells, which were incubated for 2 h at room temperature. Afterwards, cells were washed with PBS and 5 μl/well solution of HOECHST 33342 dye (5 μg/ml) was added to cells and cells were incubated 15 min at room temperature in the dark. Cells were washed twice with PBS then covered with PBS and stored at 4° C. until analysis. Images were acquired with a PERKIN ELMER OPERA™ High-Content Analysis reader. Images were analyzed with image analysis software MetaXpress™ from Molecular devices utilizing the Mitotic Index application module. In this assay both labels HOECHST 33342 and phosphorylated Histone H3 on serine 10 were measured. HOECHST 33342 labels the DNA and is used to count the cell number. The staining of phosphorylated Histone H3 on serine 10 determines the number of mitotic cells. […] Otherwise cells were arrested at G2/M phase of the cell cycle progression. The raw assay data were further analyzed by four-parametric hill equation using Genedata's Assay Analyzer and Condoseo software.

Experiment [2] shares this test system. The experiment in a line: SAC-Formation - Paclitaxel-Induced Assay. The note with it: Homo sapiens, HeLa, 24 h, HeLa cells, paclitaxel 0.05 μM, test range 0.005 μM-20 μM, read-out: IC50 [mol/l] SAC-Formation - Paclitaxel-Induced Assay.
From the text: as §1, §2
Cultivated cells of the human cervical tumor cell line HeLa (ATCC CCL-2) were plated at a density of 1000 cells/well in a 1536-well microtiter plate in 2 μl PAA
as §3, with “Ham's” for “Cultivated cells of the human cervical tumor cell line HeLa (ATCC CCL-2) were plated at a density of 1000 cells/well in a 1536-well microtiter plate in 2 μl PAA Ham's”, “paclitaxel” for “nocodazole”, “0.05 μM” for “0.1 μg/ml”, “μM -20” for “μM-20”, “paclitaxel.” for “nocodazole.”

Experiment [3] has as its system HeLa. The experiment in a line: Proliferation assay (crystal violet), HeLa. Conditions: Homo sapiens, HeLa, 96 h, HeLa cells; 4 days incubation; crystal violet staining; read-out: IC50 inhibition of proliferation, HeLa. The method, then:
Cultivated tumor cells (cells were ordered from ATCC, except HeLa-MaTu and HeLa-MaTu-ADR, which were ordered from EPO-GmbH, Berlin) were plated at a density of 1000 to 5000 cells/well, depending on the growth rate of the respective cell line, in a 96-well multititer plate in 200 μL of their respective growth medium supplemented 10% fetal calf serum. After 24 hours, the cells of one plate (zero-point plate) were stained with crystal violet (see below), while the medium of the other plates was replaced by fresh culture medium (200 μl), to which the test substances were added in various concentrations (0 μM, as well as in the range of 0.001-10 μM; the final concentration of the solvent dimethyl sulfoxide was 0.5%). The cells were incubated for 4 days in the presence of test substances. Cell proliferation was determined by staining the cells with crystal violet: the cells were fixed by adding 20 μl/measuring point of an 11% glutaric aldehyde solution for 15 minutes at room temperature. After three washing cycles of the fixed cells with water, the plates were dried at room temperature. The cells were stained by adding 100 μl/measuring point of a 0.1% crystal violet solution (pH 3.0). After three washing cycles of the stained cells with water, the plates were dried at room temperature. The dye was dissolved by adding 100 μl/measuring point of a 10% acetic acid solution. Absorbtion was determined by photometry at a wavelength of 595 nm. The change of cell number, in percent, was calculated by normalization of the measured values to the aborbtion values of the zero-point plate (=0%) and the absorbtion of the untreated (0 μm) cells (=100%). The IC50 values were determined by means of a 4 parameter fit.

`CC(=O)N1CCN(C(=O)c2cccc(NC(=O)c3c(C)nsc3Nc3cnc4ccccc4n3)c2)CC1` [Example 70, N-{3-[(4-Acetylpiperazin-1-yl)carbonyl]phenyl}-3-methyl-5-(quinoxalin-2-ylamino)-1,2-thiazole-4-carboxamide]: the pIC50 in experiment [1] was 5.66; in experiment [2] it was 5.00; in experiment [3], 5.00.
For the compound `Cc1nsc(Nc2cnc3ccccc3n2)c1C(=O)Nc1cccc(C(=O)NCCN2CCOCC2)c1` [Example 71, 3-Methyl-N-(3-{[2-(morpholin-4-yl)ethyl]carbamoyl}-phenyl)-5-(quinoxalin-2-ylamino)-1,2-thiazole-4-carboxamide], the values for the pIC50 in experiment [1], in experiment [2] and in experiment [3] were 5.85, 4.70 and 5.00, respectively.
`Cc1nsc(Nc2cnc3ccccc3n2)c1C(=O)Nc1cccc(C(=O)NCCN2CCCC2)c1` [Example 72, 3-Methyl-N-(3-{[2-(pyrrolidin-1-yl)ethyl]carbamoyl}phenyl)-5-(quinoxalin-2-ylamino)-1,2-thiazole-4-carboxamide]: the pIC50 is 7.28 in experiment [1], 5.00 in experiment [2] and 5.00 in experiment [3].
With `C#CCNC(=O)c1cccc(NC(=O)c2c(C)nsc2Nc2cnc3ccccc3n2)c1` [Example 73, 3-Methyl-N-[3-(prop-2-yn-1-ylcarbamoyl)phenyl]-5-(quinoxalin-2-ylamino)-1,2-thiazole-4-carboxamide], the results for the pIC50 in experiment [1], in experiment [2] and in experiment [3] were 6.60, 5.28 and 5.03, respectively.
Turning to `COC(=O)CCNC(=O)c1cccc(NC(=O)c2c(C)nsc2Nc2cnc3ccccc3n2)c1` [Example 74, Methyl N-[3-({[3-methyl-5-(quinoxalin-2-ylamino)-1,2-thiazol-4-yl]carbonyl}amino)benzoyl]-β-alaninate], the figures for the pIC50 in experiment [1], in experiment [2] and in experiment [3] were 5.89, 5.28 and 5.00, respectively.
For `Cc1nsc(Nc2cnc3ccccc3n2)c1C(=O)Nc1cccc(C(=O)NCCN(C)C)c1` [Example 75, N-(3-{[2-(dimethylamino)ethyl]carbamoyl}phenyl)-3-methyl-5-(quinoxalin-2-ylamino)-1,2-thiazole-4-carboxamide], the pIC50 in experiment [1] is 7.82; in experiment [2] it was 5.00; in experiment [3], 5.00.
For the compound `COC(=O)CN(C)C(=O)c1cccc(NC(=O)c2c(C)nsc2Nc2cnc3ccccc3n2)c1` [Example 76, Methyl N-methyl-N-[3-({[3-methyl-5-(quinoxalin-2-ylamino)-1,2-thiazol-4-yl]carbonyl}amino)benzoyl]-glycinate], the pIC50 was 5.30 in experiment [1], 4.74 in experiment [2] and 5.00 in experiment [3].
`COc1cc(NC(=O)c2cccc(NC(=O)c3c(C)nsc3Nc3cnc4ccccc4n3)c2)cc(OC)c1OC` [Example 77, 3-Methyl-5-(quinoxalin-2-ylamino)-N-{3-[(3,4,5-trimethoxy-phenyl)carbamoyl]phenyl}-1,2-thiazole-4-carboxamide]: the pIC50 in experiment [1] is 5.66; in experiment [2] it was 5.00; in experiment [3] it was 5.00.
For `Cc1nsc(Nc2cnc3ccccc3n2)c1C(=O)Nc1cccc(C(=O)N2CCN(c3ccccc3F)CC2)c1` [Example 78, N-(3-{[4-(2-Fluorophenyl)piperazin-1-yl]carbonyl}phenyl)-3-methyl-5-(quinoxalin-2-ylamino)-1,2-thiazole-4-carboxamide], the pIC50 is 6.33 in experiment [1], 5.70 in experiment [2] and 5.15 in experiment [3].
On the same counts, the results for `Cc1nsc(Nc2cnc3ccccc3n2)c1C(=O)Nc1cccc(C(=O)N2CCN(c3cnccn3)CC2)c1` [Example 79, 3-Methyl-N-(3-{[4-(pyrazin-2-yl)piperazin-1-yl]carbonyl}-phenyl)-5-(quinoxalin-2-ylamino)-1,2-thiazole-4-carboxamide] are 6.05, 5.43 and 5.00.
In the case of `Cc1nsc(Nc2cnc3ccccc3n2)c1C(=O)Nc1cccc(C(=O)N2CCN(c3ccccc3C#N)CC2)c1` [Example 80, N-(3-{[4-(2-Cyanophenyl)piperazin-1-yl]carbonyl}phenyl)-3-methyl-5-(quinoxalin-2-ylamino)-1,2-thiazole-4-carboxamide], the pIC50 in experiment [1] was 5.74; in experiment [2], 5.46; in experiment [3], 5.08.
Take `Cc1nsc(Nc2cnc3ccccc3n2)c1C(=O)Nc1cccc(C(=O)NCCCN2CCCC2)c1` [Example 81, 3-Methyl-N-(3-{[3-(pyrrolidin-1-yl)propyl]carbamoyl}-phenyl)-5-(quinoxalin-2-ylamino)-1,2-thiazole-4-carboxamide]: the pIC50 is 5.00 in experiment [1], 4.96 in experiment [2] and 5.00 in experiment [3].
